{"source": "patent US11904004B2", "about": "“Anti-CD277 antibodies” (INSTITUT NATIONAL DE LA SANTE ET DE LA RECHERCHE MEDICALE …, priority 2010, dated 2024)", "type_in_all_cases": "cell-based, human", "key": {"monocytes": {"tested_on": "monocytes", "experiment": "Apoptosis detection (Annexin V), survival of monocytes", "conditions": "plastic-coated mAb or 20 ng/ml GM-CSF, 3 days (72 hours), Annexin V; representative value and range of five experiments", "method": "(§1) Blood samples were obtained from 5 healthy volunteers enrolled among the staff members, after informed consent. Monocytes were separated from peripheral blood mononuclear cells, and isolated using the MACS CD14 isolation kit (Miltenyi Biotech, Auburn, Calif. USA). Monocytes were cultured for 5 days with 200 ng/ml of recombinant human GM-CSF and 10 ng/ml recombinant human IL-4 (Schering-Plough Research Institute). These cells were termed immature dendritic cells (iDC). To achieve the stimulation, monocytes and iDC were cultured with 10 ng/ml of LPS, ligand for TLR4, 30 μg/ml of 8848 (Sigma-Aldrich, Milano, Italy), ligand for TLR7/8 and with […] of poly (I:C) (Sigma-Aldrich), ligand for TLR3, and were harvested after 48 h. The cells were cultured in RPMI 1640 supplemented with 10% heat-inactivated FCS, 5 mM L-glutamine and 50 IU/ml penicillin-streptomycin (from here on referred to as complete medium).\n(§2) Monocytes and iDC were cultured on plastic coated with anti-BT3 mAb (clone 20.1) or with isotype-matched irrelevant mAb. As control, the cells were stimulated with 20 ng/ml recombinant human GM-CSF (Schering-Plough Research Institute). After three days, cells were harvested, stained with Annexin V-FITC (Bender MedSystems, Wien, Austria) and analysed by flow cytometry."}, "[1]": {"tested_on": "immature dendritic cells (iDC)", "experiment": "Apoptosis detection (Annexin V), survival of iDC", "conditions": "plastic-coated mAb or GM-CSF, 72-h culture, representative value and range of five experiments", "method": "as §1, §2"}, "Vγ9Vδ2 T cells": {"tested_on": "Vγ9Vδ2 T cells", "experiment": "Activation / CD107 degranulation of expanded Vγ9Vδ2 T cells (phosphoantigen or anti-CD3 stimulation)", "conditions": "increasing doses of BrHPP alone", "method": "We used for γδ T cells labelling in purity test after expansion, anti-CD3 PE-Cy7 and anti-Vδ2 FITC mAb (BD Pharmingen). For CD277 characterisation in different subsets PBMC were incubated with the following antibodies and molecules: anti-CD3 PE-Cy5 (BD Pharmingen), anti-CD4 PB (BD Pharmingen), anti-CD8 PB (BD Pharmingen), anti-Vδ2 FITC (BD Pharmingen), anti-CD27 APC ALEXA FLUOR® 750 (CALTAG Laboratory), anti-CCR7 PECy7 (BD Pharmingen), anti-CD28 PE (Beckman Coulter), anti-CD45RA ECD (Beckman Coulter), LIVE/DEAD® Fixable Dead Cell Stain Kit (L34957, Invitrogen) and anti-CD277 labelled with ALEXA FLUOR® 647 (Protein labelling Kit ALEXA FLUOR® 647, Molecular Probes, Invitrogen). […] All samples were measured on FACSCANTO® or FACSARIA® flow cytometers (BD Biosciences) using FACSDIVA® software. […]\nPBMC were plated and stimulated as described in the paragraph: cell lines and expansion of γδ T cells, except cells were stimulated with anti-CD277 mAbs (10 μg/ml); or control isotypes (10 μg/ml); and with or without BrHPP at different concentrations. […] Percentages of Vγ9Vδ2 were measured the first day and the last day of culture as described above. […] Activation of degranulation was measured by CD107 labelling assay as described above."}, "primary AML blasts [2]": {"tested_on": "primary AML blasts", "experiment": "Chromium release assay, lysis of primary AML blasts by Vγ9Vδ2 T cells", "conditions": "E:T 30:1; ZOL 45 μM O/N, 20.1 mAb 10 μg/ml, BrHpp 2 μM", "method": "(§3) Effector γδ T cells were established and maintained as previously described^28. PBMC from HV were stimulated with ZOL (1 μm) and rhlL-2 (200 IU/ml) at Day 0. From Day 5, rhIL-2 was renewed every two days and cells were kept at 1.5×10^6/m1 for 15 days. NK cells were isolated using EASYSEP® Human NK cell enrichment kit (StemCell Technologies). The purity of γδ T cells and NK cells was determined by flow cytometry and respectively greater than 80% and 98%. The Burkitt lymphoma cell line, DAUDI, the human AML cell line, U937, and the erythroleukemic cell line, K562, were obtained from the American Type Culture Collection and cultured (0.5×10^6/ml) in RPMI 1640 medium with 10% FCS. BTN3A Knock-down HEK293FT cells (sh #284; clone #30) were provided by E.Scotet (Inserm U892, Nantes), cultured and transfected with BTN3A1, BTN3A2, BTN3A3 mutated cDNA-containing plasmids, as described^23.\n(§4) 0.5×10^6 target cells were incubated with 50 pCi of ^51Cr (Perkin-Elmer) for AML blasts and 10 pCi for DAUDI and K562 cells for 90 minutes and mixed with effector cells in a Effector:Target (E:T) ratio of […]. After 4 hours of incubation at 37° C., 50p1 supernatant of each sample was transferred in LUMA® plates and radioactivity was determined by a gamma counter. The percentage of specific lysis was calculated using the formula [(experimental−spontaneous release/total−spontaneous release)×100] and expressed as the mean of triplicate."}, "primary AML blasts [3]": {"tested_on": "primary AML blasts", "experiment": "Chromium release assay, lysis of primary AML blasts by NK cells", "method": "as §3, with “BTN3A Knock-down HEK293FT cells (sh #284; clone #30) were provided by E.Scotet (Inserm U892, Nantes), cultured and transfected with BTN3A1, BTN3A2, BTN3A3 mutated cDNA-containing plasmids, as described^23.” left out\nas §4"}}, "note": "Where “and” joins values, the source holds several entries; their conditions need not be identical. Equal entries are not always repeated."}
{"molecule": "GM-CSF: recombinant human GM-CSF, survival control [reference compound]", "values": [{"measurement": "monocytes survived in the absence of endogenous survival factors", "setting": "monocytes", "value": "81.22% and 60.41-83%"}, {"measurement": "healthy-vital (surviving) iDC", "setting": "[1]", "value": "85.97% and 71.01-85.97%"}]}
{"molecule": "CC(O)(CBr)CCOP(=O)(O)OP(=O)(O)O", "note": "(centres unmarked) [BrHPP]", "values": [{"measurement": "CD107 expression", "setting": "Vγ9Vδ2 T cells", "value": "up to 40%"}]}
{"molecule": "O=P(O)(O)C(O)(Cn1ccnc1)P(=O)(O)O", "note": "[ZOL, Zoledronate, reference compound]", "values": [{"measurement": "enhancement of Vγ9Vδ2 T cells lysis of AML blasts compared with BrHpp", "setting": "primary AML blasts [2]", "value": "significantly more efficient"}, {"measurement": "NK cells-mediated AML blasts lysis", "setting": "primary AML blasts [3]", "value": "no effect"}]}
